For experiment [1], the system named is primary human mesenchymal stem cells (hMSCs). In words: Induction of chondrogenesis in primary human mesenchymal stem cells (nodule count). In kind it is cell-based. Particulars: 144 h, 6 days; for Emax: TGF-β3 10 ng/mL as positive control, read-out: Max. Activity as % TGF-β3 activity; for EC50: concentration required to induce 50% levels of chondrogenesis vs TGF-β3, read-out: Conc (nM) of 50% TGF-β3 activity. How it is done: Representative compounds were screened using primary human mesenchymal stem cells (hMSCs) to determine their ability to induce chondrogenesis (process by which cartilage is developed).
Human Mesenchymal Stem Cell Culture: Primary human mesenchymal stem cells (hMSCs) were purchased from Lonza (Walkersville, Md.) and expanded in Mesenchymal Stem Cell Growth Media (Lonza). Cells between passage 3 and 6 were used for the experiments.
Compound Screening: Each compound was dissolved in DMSO as a 10 mM stock and used to prepare compound source plates. Serial dilution (1:3, 6-point dose-response curves from 2700 nM to 10 nM) and compound transfer was performed using the ECHO 550 (Labcyte, Sunnyvale, Calif.) into 96-well clear bottom assay plates (Greiner Bio-One) with appropriate DMSO backfill for a final DMSO concentration of 0.03%. hMSCs were plated at 20,000 cells/well in 250 μL/well Incomplete Chondrogenic Induction Medium (Lonza; DMEM, dexamethasone, ascorbate, insulin-transferrin-selenium [ITS supplement], gentamycin-amphotericin [GA-1000], sodium pyruvate, proline and L-glutamine). TGF-β3 (10 ng/mL) was used as a positive control for differentiation while negative control wells were treated with 75 nL DMSO for normalization and calculating EC50 values. Cells were incubated at 37° C. and 5% CO2 for 6 days. To image chondrogenic nodules, the cells were fixed using 4% formaldehyde (Electron Microscopy Sciences), and stained with 2 μg/mL Rhodamine B (Sigma-Aldrich) and 20 μM Nile Red (Sigma-Aldrich) [Johnson K., et. al, A Stem Cell-Based Approach to Cartilage Repair, Science, (2012), 336(6082), 717-721]. The nodules imaged (4 images per well at 4× magnification) by excitation at 531 nm and emission at 625 nm and quantified using the CellInsight CX5 (Thermo Scientific). Number of nodules in each well was normalized to the average of 3 DMSO treated wells on the same plate using Excel (Microsoft Inc.). The normalized averages (fold change over DMSO) of 3 replicate wells for each compound concentration were calculated. Due to solubility limitations of some of the compounds, curve fitting was incomplete leading to inaccurate EC50 determinations.
Using TGF-β3 as a positive control, the concentration of representative compounds required to induce 50% levels of chondrogenesis is reported. In addition, the maximum activity of each compound and the respective dose that each compound reached maximum chondrogenesis activity is reported.

The test system of a further experiment is IL-6. In words: IL-6 inhibition in LPS-stimulated THP-1 cells (HTRF). In kind it is cell-based. Particulars: Homo sapiens; for EC50: LPS 500 ng/mL, 22 hours, IL6 HTRF.

`c1cncc(-c2ccc3[nH]nc(-c4cc5c(N6CCCCC6)nccc5[nH]4)c3n2)c1` [Compound 172, 3-(4-(Piperidin-1-yl)-1H-pyrrolo[3,2-c]pyridin-2-yl)-5-(pyridin-3-yl)-1H-pyrazolo[4,3-b]pyridine]: in experiment [1], the Emax was found to be 29%. In addition, in the experiment with IL-6, the EC50 was 84 nM.

As to `CN(C)Cc1cncc(-c2ccc3[nH]nc(-c4cc5c(N6CCCCC6)nccc5[nH]4)c3n2)c1` [Compound 181, N,N-Dimethyl-1-(5-(3-(4-(piperidin-1l-yl)-1H-pyrrolo[3,2-c]pyridin-2-yl)-1H-pyrazolo[4,3-b]pyridin-5-yl)pyridin-3-yl)methanamine], the Emax in experiment [1] was determined as 23%. Further, in the experiment with IL-6, the EC50 came to 2210 nM.

As for `CCCCC(=O)Nc1cncc(-c2ccc3[nH]nc(-c4cc5c(N6CCCCC6)nccc5[nH]4)c3n2)c1` [Compound 187, N-(5-(3-(4-(Piperidin-1-yl)-1H-pyrrolo[3,2-c]pyridin-2-yl)-1H-pyrazolo[4,3-b]pyridin-5-yl)pyridin-3-yl)pentanamide], in experiment [1], the Emax was found to be 54% and the EC50 was found to be 30 nM. In the experiment on IL-6, this molecule showed an EC50 of 102 nM.

For `FC1(F)CCN(Cc2cncc(-c3ccc4[nH]nc(-c5cc6c(N7CCCCC7)nccc6[nH]5)c4n3)c2)C1` [Compound 194, 5-(5-((3,3-Difluoropyrrolidin-1-yl)methyl)pyridin-3-yl)-3-(4-(piperidin-1-yl)-1H-pyrrolo[3,2-c]pyridin-2-yl)-1H-pyrazolo[4,3-b]pyridine], in experiment [1], the Emax is 123% and the EC50 came to 30 nM. In the experiment with IL-6, this molecule had an EC50 of 186 nM.

For the molecule `c1ccc(-c2ccc3[nH]nc(-c4cc5c(N6CCCCC6)nccc5[nH]4)c3n2)nc1` [Compound 196, 3-(4-(Piperidin-1-yl)-1H-pyrrolo[3,2-c]pyridin-2-yl)-5-(pyridin-2-yl)-1H-pyrazolo[4,3-b]pyridine], in experiment [1], the Emax was determined as 102% and the EC50 amounted to 100 nM. The molecule further registered an EC50 in the experiment on IL-6 of 1800 nM.

For `Cc1ccncc1-c1ccc2[nH]nc(-c3cc4c(N5CCN(C)CC5)nccc4[nH]3)c2n1` [Compound 229, 3-(4-(4-Methylpiperazin-1l-yl)-1H-pyrrolo[3,2-c]pyridin-2-yl)-5-(4-methylpyridin-3-yl)-1H-pyrazolo[4,3-b]pyridine], in experiment [1], the Emax was determined as 87% and the EC50 was determined as 2700 nM. In the experiment on IL-6, the EC50 came out at 108 nM.

With `CN1CCN(c2nccc3[nH]c(-c4n[nH]c5ccc(-c6cncc(CN7CCCCC7)c6)nc45)cc23)CC1` [Compound 239, 3-(4-(4-methylpiperazin-1-yl)-1H-pyrrolo[3,2-c]pyridin-2-yl)-5-(5-(piperidin-1-ylmethyl)pyridin-3-yl)-1H-pyrazolo[4,3-b]pyridine], in experiment [1], the Emax turned out to be 71% and the EC50 was determined as 10 nM. The molecule also showed an EC50 with IL-6 of 3980 nM.

In the case of `CN1CCN(c2nccc3[nH]c(-c4n[nH]c5ccc(-c6cncnc6)nc45)cc23)CC1` [Compound 251, 3-(4-(4-Methylpiperazin-1l-yl)-1H-pyrrolo[3,2-c]pyridin-2-yl)-5-(pyrimidin-5-yl)-1H-pyrazolo[4,3-b]pyridine], the Emax in experiment [1] amounted to 56%. The EC50 in experiment [1] amounted to 100 nM; with IL-6, 287 nM.

Consider `c1cncc(-c2ccc3[nH]nc(-c4cc5cnccc5[nH]4)c3n2)c1` [Compound 256, 5-(Pyridin-3-yl)-3-(1H-pyrrolo[3,2-c]pyridin-2-yl)-1H-pyrazolo[4,3-b]pyridine], for which, in experiment [1], the Emax stood at 119% and the EC50 came out at 900 nM. For the same molecule, in the experiment with IL-6, the EC50 worked out at 73 nM.

For `CCNCc1cncc(-c2ccc3[nH]nc(-c4cc5cnccc5[nH]4)c3n2)c1` [Compound 258, N-((5-(3-(1H-Pyrrolo[3,2-c]pyridin-2-yl)-1H-pyrazolo[4,3-b]pyridin-5-yl)pyridin-3-yl)methyl)ethanamine], in experiment [1], the Emax worked out at 99% and the EC50 is 2700 nM. The molecule further gave an EC50 in the experiment with IL-6 of 462 nM.

`CN(C)Cc1cncc(-c2ccc3[nH]nc(-c4cc5cnccc5[nH]4)c3n2)c1` [Compound 265, 1-(5-(3-(1H-Pyrrolo[3,2-c]pyridin-2-yl)-1H-pyrazolo[4,3-b]pyridin-5-yl)pyridin-3-yl)-N,N-dimethylmethanamine]: in experiment [1], the Emax was found to be 119%. Further, the figures for the EC50 (in experiment [1]; in the experiment on IL-6) were 30 nM and 866 nM, respectively.

`FC1(F)CCN(Cc2cncc(-c3ccc4[nH]nc(-c5cc6cnccc6[nH]5)c4n3)c2)C1` [Compound 278, 5-(5-((3,3-Difluoropyrrolidin-1-yl)methyl)pyridin-3-yl)-3-(1H-pyrrolo[3,2-c]pyridin-2-yl)-1H-pyrazolo[4,3-b]pyridine]: the Emax in experiment [1] amounted to 134%. For the same molecule, the EC50 in experiment [1] is 300 nM; with IL-6, 92 nM.

In the case of `c1cc2[nH]c(-c3n[nH]c4ccc(-c5cncnc5)nc34)cc2cn1` [Compound 279, 5-(Pyrimidin-5-yl)-3-(1H-pyrrolo[3,2-c]pyridin-2-yl)-1H-pyrazolo[4,3-b]pyridine], in experiment [1], the Emax is 53% and the EC50 worked out at 2700 nM. Besides, in the experiment with IL-6, the EC50 is 1110 nM.

With `CC(C)CC(=O)Nc1cncc(-c2ccc3[nH]nc(-c4cc5c(-c6cc(F)cc(CNS(C)(=O)=O)c6)nccc5[nH]4)c3n2)c1` [Compound 478, N-(5-(3-(4-(3-Fluoro-5-(methylsulfonamidomethyl)phenyl)-1H-pyrrolo[3,2-c]pyridin-2-yl)-1H-pyrazolo[4,3-b]pyridin-5-yl)pyridin-3-yl)-3-methylbutanamide], in experiment [1], the Emax was 33%. Besides, in the experiment with IL-6, the EC50 was 108 nM.

As for `Cc1ccncc1-c1ccc2[nH]nc(-c3cc4c(-c5cc(F)cc(CNS(C)(=O)=O)c5)nccc4[nH]3)c2n1` [Compound 481, N-(3-Fluoro-5-(2-(5-(4-methylpyridin-3-yl)-1H-pyrazolo[4,3-b]pyridin-3-yl)-1H-pyrrolo[3,2-c]pyridin-4-yl)benzyl)methanesulfonamide], in experiment [1], the Emax turned out to be 98% and the EC50 is 10 nM. In addition, the EC50 in the experiment with IL-6 was 45 nM.

As a reminder, the inhibition is the percentage by which the read-out fell short of the control. Take `CS(=O)(=O)NCc1cc(F)cc(-c2nccc3[nH]c(-c4n[nH]c5ccc(-c6cncc(NC(=O)Cc7ccccc7)c6)nc45)cc23)c1` [Compound 486, N-(5-(3-(4-(3-Fluoro-5-(methylsulfonamidomethyl)phenyl)-1H-pyrrolo[3,2-c]pyridin-2-yl)-1H-pyrazolo[4,3-b]pyridin-5-yl)pyridin-3-yl)-2-phenylacetamide]: the Emax in experiment [1] came out at 110%. Moreover, the results for the EC50 (in experiment [1]; with IL-6) were 10 nM and greater than 10000 nM, respectively. For the same molecule, the inhibition at 10 µM with IL-6 (given for EC50 >10 μM, LPS, IL6, 10 μM, read-out: percent inhibition at 10 μM) came out at 28.5%.

For the molecule `CS(=O)(=O)NCc1cc(F)cc(-c2nccc3[nH]c(-c4n[nH]c5ccc(-c6cncc(NC(=O)C7CCCC7)c6)nc45)cc23)c1` [Compound 498, N-(5-(3-(4-(3-Fluoro-5-(methylsulfonamidomethyl)phenyl)-1H-pyrrolo[3,2-c]pyridin-2-yl)-1H-pyrazolo[4,3-b]pyridin-5-yl)pyridin-3-yl)cyclopentanecarboxamide], in experiment [1], the Emax amounted to 50% and the EC50 was determined as 900 nM. In the experiment on IL-6, this molecule gave an EC50 of 162 nM.

Turning to `CS(=O)(=O)NCc1cc(F)cc(-c2nccc3[nH]c(-c4n[nH]c5ccc(-c6cncc(NC(=O)C7CCCCC7)c6)nc45)cc23)c1` [Compound 499, N-(5-(3-(4-(3-Fluoro-5-(methylsulfonamidomethyl)phenyl)-1H-pyrrolo[3,2-c]pyridin-2-yl)-1H-pyrazolo[4,3-b]pyridin-5-yl)pyridin-3-yl)cyclohexanecarboxamide], the Emax in experiment [1] came to 50%. In addition, the results for the EC50 (in experiment [1]; in the experiment on IL-6) were 10 nM and 542 nM, respectively.

As to `CS(=O)(=O)NCc1cc(F)cc(-c2nccc3[nH]c(-c4n[nH]c5ccc(-c6cncc(CN7CCC(F)(F)C7)c6)nc45)cc23)c1` [Compound 502, N-(3-(2-(5-(5-((3,3-Difluoropyrrolidin-1-yl)methyl)pyridin-3-yl)-1H-pyrazolo[4,3-b]pyridin-3-yl)-1H-pyrrolo[3,2-c]pyridin-4-yl)-5-fluorobenzyl) methanesulfonamide], in experiment [1], the Emax turned out to be 148% and the EC50 is 10 nM. The same molecule registered an EC50 in the experiment with IL-6 of 349 nM.

These data come from US10231956B2, “3-(1H-pyrrolo[3,2-C]pyridin-2-YL)-1 H-pyrazolo[4,3-B]pyridines and therapeutic uses thereof” (Samumed, LLC, priority 2015, dated 2019).
